Measured values reported in ChEMBL document CHEMBL5375955, “Discovery of New Fusobacterium nucleatum Inhibitors to Attenuate Migratory Capability of Colon Cancer Cells by the Drug Repositioning Strategy” (J Med Chem, 2023).
≈ marks a conversion by molar mass, not a printed value. Calls of active or inactive are those of the source. The rule behind the calls is not given here.

Assays:
[1] = Clearance in Sprague-Dawley rat at 1 mg/kg, iv measured upto 24 hrs by LC-MS/MS analysis; assay type: ADME, organism-based; conditions: in vivo
[2] = Metabolic stability in mouse liver microsomes assessed as half life at 1 uM incubated for 45 mins in presence of NADPH by LC-MS/MS analysis; assay type: ADME, Microsome
[3] = Acute toxicity in po dosed ICR mouse assessed as heart damage at 1500 mg/kg, po measured after 7 days by H and E staining based analysis; assay type: organism-based; conditions: in vivo, 168 h, time 7 day
[4] = Cytotoxicity against HUVEC cells assessed as inhibition of cell growth incubated for 48 hrs by CCK-8 assay; assay type: toxicity, cell-based; conditions: human
[5] = Cytotoxicity against human L02 cells assessed as inhibition of cell growth incubated for 48 hrs by CCK-8 assay; assay type: toxicity, cell-based
[6] = Acute toxicity in po dosed ICR mouse assessed as spleen damage at 1500 mg/kg, po measured after 7 days by H and E staining based analysis; assay type: organism-based; conditions: in vivo, 168 h, time 7 day
Fusobacterium nucleatum [7] = assay: Antibiofilm activity against Fusobacterium nucleatum ATCC 23726 assessed as downregulation of tnaA gene expression measured after 48 hrs by RT-qPCR analysis; assay type: functional, organism-based
[8] = Tmax in Sprague-Dawley rat at 20 mg/kg, po measured upto 24 hrs by LC-MS/MS analysis; assay type: ADME, organism-based; conditions: in vivo
[9] = Acute toxicity in ICR mouse assessed as death rate at 2160 mg/kg, po measured after 7 days; assay type: organism-based; conditions: in vivo, time 7 day, read-out: Activity
[10] = test system: Lactobacillus acidophilus; assay: Antibacterial activity against Lactobacillus acidophilus ATCC CGMCC 1.577 assessed as bacterial growth inhibition incubated for 48 hrs by broth dilution susceptibility test; assay type: functional
[11] = Acute toxicity in po dosed ICR mouse assessed as kidney damage at 1500 mg/kg, po measured after 7 days by H and E staining based analysis; assay type: organism-based; conditions: in vivo, 168 h, time 7 day
[12] = Drug metabolism assessed as NTR(unknown origin)-mediated metabolism at 10 mM incubated for 2 hrs in presence of NADH by LC-MS analysis; assay type: ADME; conditions: bacteria, 10000 µM
[13] = Acute toxicity in ICR mouse assessed as death rate at 2592 mg/kg, po measured after 7 days; assay type: organism-based; conditions: in vivo, time 7 day, read-out: Activity
[14] = test system: Salmonella enterica subsp. enterica serovar Paratyphi B; assay: Antibacterial activity against Salmonella paratyphi B ATCC CMCC50094 assessed as bacterial growth inhibition incubated for 48 hrs by broth dilution susceptibility test; assay type: functional
[15] = Oral bioavailability in Sprague-Dawley rat at 20 mg/kg measured upto 24 hrs by LC-MS/MS analysis; assay type: ADME, organism-based; conditions: in vivo
Escherichia coli = assay: Antibacterial activity against Escherichia coli […] assessed as bacterial growth inhibition incubated for 48 hrs by broth dilution susceptibility test; assay type: functional
Staphylococcus aureus = assay: Antibacterial activity against Staphylococcus aureus ATCC 6538 assessed as bacterial growth inhibition incubated for 48 hrs by broth dilution susceptibility test; assay type: functional
Fusobacterium nucleatum [16] = assay: Antibacterial activity against Fusobacterium nucleatum ATCC 23726 assessed as downregulation of NTR gene expression incubated for 48 hrs by RT-qPCR analysis; assay type: functional, organism-based
Enterococcus faecalis = assay: Antibacterial activity against Enterococcus faecalis ATCC 29212 assessed as bacterial growth inhibition incubated for 48 hrs by broth dilution susceptibility test; assay type: functional
MC-38 [17] = assay: Antiproliferative activity against mouse MC-38 cells assessed as inhibition of cell growth incubated for 48 hrs by CCK-8 assay; assay type: functional, cell-based; conditions: MC-38, 48 h
Fusobacterium nucleatum [18] = assay: Antibiofilm activity against Fusobacterium nucleatum ATCC 23726 assessed as inhibition of biofilm formation incubated for 48 hrs by crystal violet staining based assay; assay type: functional, organism-based; conditions: dose 0.5-16 µg/ml
[19] = Acute toxicity in po dosed ICR mouse assessed as animal death measured after 7 days; assay type: organism-based; conditions: in vivo, time 7 day
HCT-116 = assay: Antiproliferative activity against human HCT-116 cells assessed as inhibition of cell growth incubated for 48 hrs by CCK-8 assay; assay type: functional, cell-based; conditions: HCT-116, 48 h
[20] = Half life in Sprague-Dawley rat at 1 mg/kg, iv measured upto 24 hrs by LC-MS/MS analysis; assay type: ADME, organism-based; conditions: in vivo
[21] = Cmax in Sprague-Dawley rat at 1 mg/kg, iv measured upto 24 hrs by LC-MS/MS analysis; assay type: ADME, organism-based; design: dose 1 mg/kg, time < 24 hrs, route iv; conditions: in vivo
[22] = Acute toxicity in po dosed ICR mouse assessed as lung damage at 1500 mg/kg, po measured after 7 days by H and E staining based analysis; assay type: organism-based; conditions: in vivo, 168 h, time 7 day
[23] = Acute toxicity in po dosed ICR mouse assessed as liver damage at 1500 mg/kg, po measured after 7 days by H and E staining based analysis; assay type: organism-based; conditions: in vivo, 168 h, time 7 day
Shigella flexneri = assay: Antibacterial activity against Shigella flexneri ATCC 12022 assessed as bacterial growth inhibition incubated for 48 hrs by broth dilution susceptibility test; assay type: functional
Fusobacterium nucleatum [24] = assay: Antibiofilm activity against Fusobacterium nucleatum ATCC 23726 assessed as inhibition of biofilm formation at 1 ug/ml incubated for 48 hrs by crystal violet staining based assay relative to control; assay type: functional
Akkermansia muciniphila = assay: Antibacterial activity against Akkermansia muciniphila ATCC BAA-835 assessed as bacterial growth inhibition incubated for 48 hrs by broth dilution susceptibility test; assay type: functional
L02 = assay: Downregulation of HPPD gene expression in human L02 cells at 10 to 50 uM incubated for 48 hrs by RT-qPCR analysis; assay type: functional, cell-based; conditions: dose 10-50 µM
Fusobacterium nucleatum [25] = assay: Antibacterial activity against Fusobacterium nucleatum ATCC 23726 assessed as bacterial growth inhibition incubated for 72 hrs by turbidimeter analysis; assay type: functional, organism-based
[26] = test system: Peptostreptococcus anaerobius; assay: Antibacterial activity against Peptostreptococcus anaerobius ATCC 27337 assessed as bacterial growth inhibition incubated for 48 hrs by broth dilution susceptibility test; assay type: functional
MC-38 [27] = assay: Potency index, ratio of nitisinone IC50 to test compound IC50 for antiproliferative activity against mouse MC-38 cells assessed as inhibition of cell growth incubated for 48 hrs by CCK-8 assay; assay type: functional
Fusobacterium nucleatum [28] = assay: Antibacterial activity against Fusobacterium nucleatum ATCC 23726 assessed as bacterial growth inhibition incubated for 48 hrs by broth dilution susceptibility test; assay type: functional
Fusobacterium nucleatum [29] = assay: Inhibition of Fusobacterium nucleatum ATCC 23726 stimulated mouse MC-38 cell migration assessed as reduction in number of migrating cells at 2 to 4 ug/ml incubated for 48 hrs by crystal violet staining based transwell assay; assay type: functional; conditions: dose 2-4 µg/ml
Fusobacterium nucleatum [30] = assay: Antibacterial activity against Fusobacterium nucleatum ATCC 23726 assessed as bacterial growth inhibition at 4 ug/ml incubated for 72 hrs by turbidimeter analysis; assay type: functional, organism-based; conditions: dose 4.0 µg/ml

O=C(NCc1ccc(Br)nc1)c1ccc([N+](=O)[O-])o1
clearance [1]: 601 mL/min/kg | half-life at 1 µM [2]: 25.1 min | Activity [3]: Non-Toxic | IC50 at 48 h [4]: 16 µM | IC50 at 48 h [5]: 16 µM | Activity [6]: Non-Toxic | Activity (Fusobacterium nucleatum [7]): Dose-Dependent Effect | Tmax [8]: 84 min | mortality at 168 h [9]: 20% | MIC50 [10]: 64 µg/mL (≈ 196 µM) | Activity [11]: Non-Toxic | Drug metabolism [12]: Metabolite_Detected | mortality at 168 h [13]: 70% | MIC50 [14]: > 64 µg/mL | bioavailability [15]: 4.2% | MIC50 (Escherichia coli): > 64 µg/mL | MIC50 (Staphylococcus aureus): > 64 µg/mL | Activity (Fusobacterium nucleatum [16]): Dose-Dependent Effect | MIC50 (Enterococcus faecalis): > 64 µg/mL | IC50 (MC-38 [17]): 11 µM | inhibition (Fusobacterium nucleatum [18]): Dose-Dependent Effect | LD50 at 168 h [19]: 2400 mg/kg | IC50 (HCT-116): 32 µM | half-life [20]: ~4.08 min | Cmax [21]: 85 ng/mL | Activity [22]: Non-Toxic | Activity [23]: Non-Toxic | MIC50 (Shigella flexneri): 64 µg/mL (≈ 196 µM) | inhibition at 1 µg/mL (Fusobacterium nucleatum [24]): > 50% | MIC50 (Akkermansia muciniphila): > 64 µg/mL | Activity (L02): Active | Activity (Fusobacterium nucleatum [25]): Dose-Dependent Effect | MIC50 [26]: 64 µg/mL (≈ 196 µM) | Ratio IC50 (MC-38 [27]): 8 | MIC50 (Fusobacterium nucleatum [28]): 1 µg/mL (≈ 3.07 µM) | MIC90 (Fusobacterium nucleatum [28]): 4 µg/mL (≈ 12.3 µM) | inhibition (Fusobacterium nucleatum [29]): Active | Activity (Fusobacterium nucleatum [30]): Active
